Test results as given in patent publication US8614214B2, “Pyrazole amide compounds and uses thereof” (Sinochem Corporation, priority 2010, dated 2013).
Read-outs that look alike come from different tables or passages of the source.

How the values were obtained:
[1] = test system: corn rust; test: Greenhouse pot seedling assay, corn rust; assay type: in vivo; conditions: for Control (%): comparative test, Table 20; for control of corn rust / pest or weed control at 400 ppm: 400 ppm; for pest or weed control at 400 ppm: Zea mays, 192 h, Table 21, read-out: Biological activity in greenhouse, corn rust
[2] = test system: cucumber downy mildew; test: Greenhouse pot seedling assay, cucumber downy mildew; assay type: in vivo; conditions: for Control (%): comparative test, Table 18; for pest or weed control at 400 ppm: Cucumis sativus, 120 h, Table 21, read-out: Biological activity in greenhouse, cucumber downy mildew
[3] = test system: wheat powdery mildew; test: Greenhouse pot seedling assay, wheat powdery mildew; assay type: in vivo; conditions: for control of wheat powdery mildew: 400 ppm; for pest or weed control at 400 ppm: Triticum aestivum, 192 h, Table 21, read-out: Biological activity in greenhouse, wheat powdery mildew
[4] = test system: rice blast; assay type: cell-based; conditions: 25 ppm
[5] = test system: cucumber downy mildew; test: Field trial against cucumber downy mildew; assay type: in vivo; conditions: for Control (%) average: average of 3 replicates; for Control (%) I: replicate I; for Control (%) II: replicate II; for Control (%) III: replicate III
Description: The trial was carried out in a greenhouse in July 2011 in […] district, Shanxi Province. Before the treatment, the cucumber plants were at the beginning of infection. The trial method was based on the National Standard of the People's Republic of China-“Pesticide-Guidelines for The Field Efficacy Trials”. […] The Area of plot was 15 m^2, random arrangement and 3 times replication. The volume was about 600 L/hm^2, and water was as the control. Efficacy calculation method is as follows: [formula] [formula]

[6] = test system: cucumber downy mildew; test: Persistence comparative test against cucumber downy mildew (greenhouse); assay type: in vivo
[7] = test system: rice blast; assay type: in vivo; conditions: 600 ppm, field

Structure (SMILES): Fc1ccc([C@]2(Cn3cncn3)O[C@H]2c2ccccc2Cl)cc1 (racemic) [epoxiconazole, reference compound]
- Control (%) ([1]; 3.13 ppm): 40%
- Control (%) ([1]; 6.25 ppm): 75%
- Control (%) ([1]; 12.5 ppm): 90%
- Control (%) ([1]; 25 ppm): 95%
- Control (%) ([1]; 50 ppm): 100%
- Control (%) ([1]; 100 ppm): 100%

Structure (SMILES): C[C@@]1(c2ccc(Oc3ccccc3)cc2)OC(=O)N(Nc2ccccc2)C1=O (racemic) [famoxadone, reference compound]
- Control (%) ([2]; 6.25 ppm): 14%
- Control (%) ([2]; 12.5 ppm): 22%
- Control (%) ([2]; 25 ppm): 51%
- Control (%) ([2]; 50 ppm): 74%
- Control (%) ([2]; 100 ppm): 81%

Structure (SMILES): CNC(=O)c1ccccc1NC(=O)COc1ccc(CNC(=O)c2cc(C)nn2C)cc1 [Compound 2]
- control of corn rust ([1]; greenhouse): 100%
- control of cucumber downy mildew ([2]; 25 ppm, greenhouse): 75%
- control of cucumber downy mildew ([2]; 50 ppm, greenhouse): 100%
- control of cucumber downy mildew ([2]; 400 ppm, greenhouse): 100%
- control of wheat powdery mildew ([3]; greenhouse): 100%
- inhibition ratio on spore germination of rice blast [4]: 100%

Structure (SMILES): CCc1cc(C(=O)NCc2ccc(OCC(=O)Nc3ccccc3C(=O)NC)cc2)n(C)n1 [Compound 3]
- control of corn rust [1]: 100%
- control of cucumber downy mildew ([2]; 25 ppm): 95%
- control of cucumber downy mildew ([2]; 50 ppm): 100%
- control of cucumber downy mildew ([2]; 400 ppm): 100%
- control of wheat powdery mildew [3]: 100%
- inhibition ratio on spore germination of rice blast [4]: 100%

Structure (SMILES): CCc1nn(C)c(C(=O)NCc2ccc(OCC(=O)Nc3ccccc3C(=O)NC)cc2)c1Cl [Compound 16]
- control of corn rust ([1]; greenhouse): 100%
- control of cucumber downy mildew ([2]; 25 ppm, greenhouse): 100%
- control of cucumber downy mildew ([2]; 50 ppm, greenhouse): 100%
- control of cucumber downy mildew ([2]; 400 ppm, greenhouse): 100%
- control of wheat powdery mildew ([3]; greenhouse): 100%
- melting point: 160 to 161 °C
- inhibition ratio on spore germination of rice blast ([4]; in vitro): 100%

Structure (SMILES): CCCc1nn(C)c(C(=O)NCc2ccc(OCC(=O)Nc3ccccc3C(=O)NC)cc2)c1Cl [Compound 17]
- control of corn rust ([1]; greenhouse): 100%

Structure (SMILES): CCc1nn(C)c(C(=O)NCc2ccc(O[C@H](C)C(=O)Nc3ccccc3C(=O)NC)cc2)c1Cl [Compound 66]
- control of corn rust ([1]; greenhouse): 100%
- control of cucumber downy mildew ([2]; 400 ppm, greenhouse): 100%

Structure (SMILES): CCc1nn(C)c(C(=O)NCc2ccc(O[C@@H](C)C(=O)Nc3ccccc3C(=O)NC)cc2)c1Cl [Compound 69]
- control of corn rust ([1]; greenhouse): 100%
- control of cucumber downy mildew ([2]; 400 ppm, greenhouse): 100%

Structure (SMILES): CCOC(=O)c1cccc(C)c1NC(=O)COc1ccc(CNC(=O)c2c(Cl)c(C)nn2C)cc1 [Compound 94]
- control of corn rust ([1]; greenhouse): 100%

Structure (SMILES): CCOC(=O)c1ccccc1NC(=O)COc1ccc(CNC(=O)c2c(Cl)c(C)nn2C)cc1 [Compound 95]
- control of corn rust ([1]; greenhouse): 100%
- inhibition ratio on spore germination of rice blast [4]: 100%

Structure (SMILES): CCOC(=O)c1ccccc1NC(=O)COc1ccc(CNC(=O)c2c(Cl)c(CC)nn2C)cc1 [Compound 99]
- control of corn rust ([1]; greenhouse): 100%

Structure (SMILES): Cc1nn(C)c(C(=O)NCc2ccc(OCC(=O)Nc3ccccc3C(N)=O)cc2)c1Cl [Compound 156]
- control of corn rust ([1]; greenhouse): 100%

Structure (SMILES): CCNC(=O)c1cccc(C)c1NC(=O)COc1ccc(CNC(=O)c2cc(C)nn2C)cc1 [Compound 177]
- control of corn rust ([1]; greenhouse): 100%
- control of cucumber downy mildew ([2]; 25 ppm, greenhouse): 100%
- control of cucumber downy mildew ([2]; 50 ppm, greenhouse): 100%
- control of cucumber downy mildew ([2]; 400 ppm, greenhouse): 100%
- control of wheat powdery mildew ([3]; greenhouse): 100%
- inhibition ratio on spore germination of rice blast [4]: 100%

Structure (SMILES): CNC(=O)c1ccccc1NC(=O)COc1ccc(CN)cc1 [II-1, 2-(2-(4-(aminomethyl)phenoxy)acetamido)-N-methylbenzamide]
- pest or weed control at 400 ppm [1]: 0%
- pest or weed control at 400 ppm ([2]; 400 ppm): 0%
- pest or weed control at 400 ppm [3]: 100%
- melting point: 109 to 110 °C

Structure (SMILES): CNC(=O)c1ccccc1NC(=O)CCl [VI-1, 2-(2-chloroacetamido)-N-methylbenzamide]
- pest or weed control at 400 ppm [1]: 0%
- pest or weed control at 400 ppm ([2]; 400 ppm): 0%
- pest or weed control at 400 ppm [3]: 0%
- melting point: 155 to 157 °C

Structure (SMILES): COC(=O)c1ccccc1NC(=O)CCl [VI-20]
- pest or weed control at 400 ppm [1]: 0%
- pest or weed control at 400 ppm ([2]; 400 ppm): 0%
- pest or weed control at 400 ppm [3]: 0%
- melting point: 92 to 94 °C

Structure (SMILES): CNC(=O)c1ccccc1NC(=O)C(C)Cl (centres unmarked) [VI-54]
- pest or weed control at 400 ppm [1]: 0%
- pest or weed control at 400 ppm ([2]; 400 ppm): 30%
- pest or weed control at 400 ppm [3]: 0%
- melting point: 121 to 122 °C

Structure (SMILES): COC(=O)c1ccccc1NC(=O)C(C)Cl (centres unmarked) [VI-56]
- pest or weed control at 400 ppm [1]: 30%
- pest or weed control at 400 ppm ([2]; 400 ppm): 75%
- pest or weed control at 400 ppm [3]: 0%
- melting point: 63 to 65 °C

Structure (SMILES): Cc1nn(C)c(C(=O)NCc2ccc(O)cc2)c1Cl [VIII-1]
- pest or weed control at 400 ppm [1]: 50%
- pest or weed control at 400 ppm ([2]; 400 ppm): 95%
- pest or weed control at 400 ppm [3]: 0%

Structure (SMILES): Cc1nn(C)c(C(=O)NCCc2ccc(O)cc2)c1Cl [VIII-138]
- pest or weed control at 400 ppm [1]: 0%
- pest or weed control at 400 ppm ([2]; 400 ppm): 0%
- pest or weed control at 400 ppm [3]: 0%

Structure (SMILES): CCc1nn(C)c(C(=O)NCCc2ccc(O)cc2)c1Cl [VIII-139]
- pest or weed control at 400 ppm [1]: 0%
- pest or weed control at 400 ppm ([2]; 400 ppm): 0%
- pest or weed control at 400 ppm [3]: 0%

Structure (SMILES): N#Cc1c(Cl)c(Cl)c(Cl)c(C#N)c1Cl [chlorothalonil, reference compound]
- Control (%) average ([5]; 800 ppm): 74%
- Control (%) I ([5]; 800 ppm): 68%
- Control (%) II ([5]; 800 ppm): 73%
- Control (%) III ([5]; 800 ppm): 81%

Structure (SMILES): COc1ccc(C(=CC(=O)N2CCOCC2)c2ccc(Cl)cc2)cc1OC [dimethomorph, reference compound]
- Control (%) ([2]; 6.25 ppm): 29%
- Control (%) ([2]; 12.5 ppm): 74%
- Control (%) ([2]; 25 ppm): 85%
- Control (%) ([2]; 50 ppm): 88%
- Control (%) ([2]; 100 ppm): 100%
- Control (%) ([6]; 25 ppm, inoculation 3 days after treatment): 0%
- Control (%) ([6]; 25 ppm, inoculation 7 days after treatment): 0%
- Control (%) ([6]; 50 ppm, inoculation 3 days after treatment): 30%
- Control (%) ([6]; 50 ppm, inoculation 7 days after treatment): 0%
- Control (%) ([6]; 100 ppm, inoculation 3 days after treatment): 44%
- Control (%) ([6]; 100 ppm, inoculation 7 days after treatment): 0%
- Control (%) ([6]; 200 ppm, inoculation 3 days after treatment): 74%
- Control (%) ([6]; 200 ppm, inoculation 7 days after treatment): 44%
- Control (%) ([6]; 400 ppm, inoculation 3 days after treatment): 100%
- Control (%) ([6]; 400 ppm, inoculation 7 days after treatment): 74%
- Control (%) average ([5]; 200 ppm): 53%
- Control (%) I ([5]; 200 ppm): 44%
- Control (%) II ([5]; 200 ppm): 52%
- Control (%) III ([5]; 200 ppm): 63%

Structure (SMILES): O=[N+]([O-])c1cc(C(F)(F)F)c(Cl)c([N+](=O)[O-])c1Nc1ncc(C(F)(F)F)cc1Cl [fluazinam, reference compound]
- Control (%) average ([7]; average of 3 replicates): 75%
- Control (%) I ([7]; replicate I): 70%
- Control (%) II ([7]; replicate II): 75%
- Control (%) III ([7]; replicate III): 80%

Structure (SMILES): COCC(=O)N(c1c(C)cccc1C)C(C)C(=O)OC (centres unmarked) [metalaxyl, reference compound]
- Control (%) ([2]; 6.25 ppm): 0%
- Control (%) ([2]; 12.5 ppm): 7%
- Control (%) ([2]; 25 ppm): 22%
- Control (%) ([2]; 50 ppm): 29%
- Control (%) ([2]; 100 ppm): 59%
